Patent publication US20080318957A1, “POLYBASIC BACTERIAL EFFLUX PUMP INHIBITORS AND THERAPEUTIC USES THEREOF” (priority 2007, published 2008)

tested on: strain of P. aeruginosa, PAM1723, overexpressing the MexAB-OprM efflux pump; experiment: checkerboard assay, levofloxacin potentiating activity (broth microdilution); format: cell-based; details: lowest inhibitor concentration giving antibacterial activity with levofloxacin at 1/32 of its MIC; MHB, 20 h, 35° C.
Description: All EPI compounds were readily soluble in water and stock solutions were prepared at a final concentration of 10 mg/ml. Stock solutions were further diluted, according to the needs of the particular assay, in Mueller Hinton Broth (MHB). Stock solution was stored at −80° C.
The checkerboard assay was performed in microtiter plates. […] EPIs were diluted in the y-axis, each row containing a single concentration of an EPI. The result of these manipulations was that each well of the microtiter plate contained a unique combination of concentrations of the two agents. The assay was performed in MHB with a final bacterial inoculum of 5 times 10^5 CFU/ml (from an early-log phase culture). Microtiter plates were incubated during 20 h at 35° C. and were read using a microtiterplate reader (Molecular Devices) at 650 nm as well as visual observation using a microtiter plate-reading mirror.

| Structure (SMILES) | MPC32 (Minimum Potentiating Concentration) |
| --- | --- |
| NCCN(CCN)C(=O)C[C@H](N)C(=O)N[C@@H](CCc1ccccc1)C(=O)Nc1cnc2ccccc2c1 [Compound 2] | 5 µg/mL |
| NCCN(CCN)C(=O)CC[C@H](N)C(=O)N/C(=C/c1ccc(C(F)(F)F)cc1)C(=O)Nc1cnc2ccccc2c1 [Compound 4, 3-[(1S)-3-[bis(2-azaniumylethyl)carbamoyl]-1-{[(1E)-1-carbamoyl-2-[4-(trifluoromethyl)phenyl]eth-1-en-1-yl]carbamoyl}propan-1-aminium]quinolin-1-ium tetrachloride] | 2.5 µg/mL |
| NCCN(CCN)C(=O)CC[C@H](N)C(=O)N[C@H](C(=O)Nc1cnc2ccccc2c1)[C@H](O)c1ccc(C(F)(F)F)cc1 [Compound 3, 3-[(1S)-3-[bis(2-azaniumylethyl)carbamoyl]-1-{[(1S,2R)-1-carbamoyl-2-hydroxy-2-[4-(trifluoromethyl)phenyl]ethyl]carbamoyl]propan-1-aminium]quinolin-1-ium tetrachloride] | >10 µg/mL |
| NCCN(CCN)C(=O)CC[C@H](N)C(=O)N[C@H](Cc1ccc(C(F)(F)F)cc1)C(=O)Nc1cnc2ccccc2c1 [Compound 1, 3-[(1S)-3-[bis(2-azaniumylethyl)carbamoyl]-1-{[(1R)-1-carbamoyl-2-[4-(trifluoromethyl)phenyl]ethyl]carbamoyl}propan-1-aminium]quinolin-1-ium tetrachloride] | 0.6 µg/mL |
| CN(C(=O)[C@@H](N)CCC(=O)N(CCN)CCN)[C@@H](Cc1ccc(C(F)(F)F)cc1)C(=O)Nc1cnc2ccccc2c1 [Compound 5, 3-[(1S)-3-[bis(2-azaniumylethyl)carbamoyl]-1-{[(1S)-1-carbamoyl-2-[4-(trifluoromethyl)phenyl]ethyl](methyl)carbamoyl}propan-1-aminium]quinolin-1-ium tetrachloride] | >10 µg/mL |
